# Data: US9504255B2, “Physical antimicrobial method” (priority 2012, dated 2016)
# Tests used:
# [1] = tested on: MSSA; test: Drug-resistance experiment on pathogens isolated from the Department of Burns (NCCLS 1997); format: cell-based, Staphylococcus aureus; settings: clinical isolates
# [2] = tested on: Acinetobacter; test: as above; format: cell-based; settings: clinical isolates
# [3] = tested on: patients clinically diagnosed with impetigo; test: Experiment of treatment of impetigo; format: in vivo, human; settings: to the affected area 2 times a day, for 7 days
# Protocol: 1652 patients clinically diagnosed with impetigo by the Department of Dermatology in the hospital were chosen and randomly divided into experimental group (n=1032) and control group (n=620). The experimental group was treated with the antimicrobial composition of the invention to the affected area, and the control group was treated with mupirocin, 2 times a day, for 7 days.
# [4] = tested on: Escherichia coli; test: Drug-resistance experiment on pathogens isolated from the Department of Burns (NCCLS 1997); format: cell-based; settings: clinical isolates
# [5] = tested on: Pseudomonas aeruginosa; test: as above; format: cell-based; settings: clinical isolates
# [6] = tested on: aerogenes; test: as above; format: cell-based, Enterobacter aerogenes; settings: clinical isolates
# [7] = tested on: Enterobacter cloacae; test: as above; format: cell-based; settings: clinical isolates
Molecule,resistance rate of Acinetobacter [2] [%],resistance rate of Escherichia coli [4] [%],resistance rate of Pseudomonas aeruginosa [5] [%],further results
penicillin,–,–,–,resistance rate of MSSA [1]: 87.0%
CCN1CCN(C(=O)N[C@@H](C(=O)N[C@@H]2C(=O)N3[C@@H]2SC(C)(C)[C@@H]3C(=O)O)c2ccccc2)C(=O)C1=O [piperacillin],93.3,–,–,–
C/C(=C\C(=O)OCCCCCCCCC(=O)O)C[C@@H]1OC[C@H](C[C@@H]2O[C@H]2[C@@H](C)[C@H](C)O)[C@@H](O)[C@H]1O [mupirocin],–,–,–,effective rate [3]: 85%
CC1(C)S[C@@H]2[C@H](NC(=O)[C@H](N)c3ccccc3)C(=O)N2[C@H]1C(=O)O [ampicillin],–,80.1,–,–
CC(C)(O/N=C(\C(=O)N[C@@H]1C(=O)N2C(C(=O)[O-])=C(C[n+]3ccccc3)CS[C@H]12)c1csc(N)n1)C(=O)O [ceftazidime],21.2,–,21.7,–
gentamicin,18.9,40.9,35.3,resistance rate of aerogenes [6]: 8.2%; resistance rate of Enterobacter cloacae [7]: 28.1%
piperazine amoxicillin,–,–,34.1,–
Cc1nnc(SCC2=C(C(=O)O)N3C(=O)[C@@H](NC(=O)Cn4cnnn4)[C@H]3SC2)s1 [cefazolin],–,40.0,–,resistance rate of aerogenes [6]: 79.3%; resistance rate of Enterobacter cloacae [7]: 89.3%
